From patent US10323038B2, “Pyrazole compounds and methods of making and using same” (ABIDE THERAPEUTICS, INC., priority 2015, dated 2019)

Legend:
FAAH = FAAH (Mus musculus (Mouse), UniProt O08914); test: In vitro competitive activity-based protein profiling, FAAH (mouse); format: biochemical; conditions: for inhibition at 1 µM: read-out: FAAH % inh. 1 μM (mouse)
Experimental: (§1) In Vitro Competitive Activity-Based Protein Profiling.
(§2) Proteomes (mouse brain membrane fraction or cell lysates for mouse assays; human prefrontal cortex or cell membrane fractions for human assays) (50 μL, 1.0 mg/mL total protein concentration) were preincubated with varying concentrations of inhibitors at 37° C. After 30 min, FP—Rh or HT-01 (1.0 μL, 50 μM in DMSO) was added and the mixture was incubated for another 30 min at 37° C. Reactions were quenched with SDS loading buffer (15 μL-4×) and run on SDS-PAGE. Following gel imaging, serine hydrolase activity was determined by measuring fluorescent intensity of gel bands corresponding to MAGL and FAAH using ImageJ 1.43u software.

MAGL = MAGL (Mus musculus (Mouse), UniProt O35678); test: In vitro competitive activity-based protein profiling, MAGL (mouse); format: biochemical; conditions: for inhibition at 1 µM: read-out: MAGL % inh. 1 μM (mouse)
Experimental: as §1, §2

FAAH, sequence (O08914 whole entry): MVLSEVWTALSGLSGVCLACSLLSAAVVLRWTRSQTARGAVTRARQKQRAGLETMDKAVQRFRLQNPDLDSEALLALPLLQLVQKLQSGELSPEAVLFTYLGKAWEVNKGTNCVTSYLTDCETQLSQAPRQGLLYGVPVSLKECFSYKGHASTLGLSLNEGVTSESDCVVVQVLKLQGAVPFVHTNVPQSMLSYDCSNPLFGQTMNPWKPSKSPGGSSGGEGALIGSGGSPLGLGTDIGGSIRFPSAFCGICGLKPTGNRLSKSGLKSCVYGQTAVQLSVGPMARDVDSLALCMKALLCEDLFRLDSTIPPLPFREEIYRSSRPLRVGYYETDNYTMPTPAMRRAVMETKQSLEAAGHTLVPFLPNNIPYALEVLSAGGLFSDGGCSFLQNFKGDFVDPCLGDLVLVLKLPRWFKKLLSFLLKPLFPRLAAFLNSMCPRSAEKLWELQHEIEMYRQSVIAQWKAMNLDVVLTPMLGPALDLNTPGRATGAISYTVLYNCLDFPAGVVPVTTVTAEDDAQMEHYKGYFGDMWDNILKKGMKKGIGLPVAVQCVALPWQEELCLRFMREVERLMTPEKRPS
MAGL, sequence (O35678 whole entry): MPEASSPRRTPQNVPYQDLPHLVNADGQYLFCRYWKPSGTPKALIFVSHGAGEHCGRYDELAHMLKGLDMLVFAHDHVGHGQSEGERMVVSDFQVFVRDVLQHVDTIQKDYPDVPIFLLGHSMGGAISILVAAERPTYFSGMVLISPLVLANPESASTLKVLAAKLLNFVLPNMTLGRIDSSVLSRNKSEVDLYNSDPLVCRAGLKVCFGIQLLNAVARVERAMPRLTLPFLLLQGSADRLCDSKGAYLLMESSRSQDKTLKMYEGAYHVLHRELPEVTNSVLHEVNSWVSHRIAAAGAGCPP

Row | SMILES | IC50 (FAAH) [µM] | inhibition at 1 µM (FAAH) [%] | IC50 (MAGL) [µM] | inhibition at 1 µM (MAGL) [%]
1 | CC(=O)N(C)c1cnn(C(=O)N2CCC3(CCN(Cc4cccc(C(F)(F)F)c4)C3)C2)c1 (stereo not shown) [Example 64, N-methyl-N-(1-(7-(3-(trifluoromethyl)benzyl)-2,7-diazaspiro[4.4]nonane-2-carbonyl)-1H-pyrazol-4-yl)acetamide] | ≤ 0.1 | ≥ 75 | 0.1 to 1 | ≥ 75
2 | CS(=O)(=O)Nc1cnn(C(=O)N2CCN(Cc3ccc(-c4ccccc4)cc3Cl)CC2)c1 [Example 221, N-(1-(4-((3-chloro-[1,1′-biphenyl]-4-yl)methyl)piperazine-1-carbonyl)-1H-pyrazol-4-yl)methanesulfonamide] | ≤ 0.1 | ≥ 75 | 0.1 to 1 | ≥ 75
3 | CC(=O)N(C)c1cnn(C(=O)N2C[C@H]3C[C@H](N(C)Cc4cc(C(F)(F)F)ccc4N4CCCC4)C[C@H]3C2)c1 [Example 144, N-methyl-N-(1-(trans-5-(methyl(2-(pyrrolidin-1-yl)-5-(trifluoromethyl)benzyl)amino)octahydrocyclopenta[c]pyrrole-2-carbonyl)-1H-pyrazol-4-yl)acetamide] | – | 50 to 75 | – | ≥ 75
4 | CS(=O)(=O)Nc1cnn(C(=O)N2CCN(Cc3ccc(-c4nccs4)cc3C(F)(F)F)CC2)c1 [Example 291, N-(1-(4-(4-(thiazol-2-yl)-2-(trifluoromethyl)benzyl)piperazine-1-carbonyl)-1H-pyrazol-4-yl)methanesulfonamide] | – | ≥ 75 | – | 50 to 75
5 | CC(=O)N(C)c1cnn(C(=O)N2CCN(Cc3ccccc3F)CC2)c1 [Example 211, N-(1-(4-(2-fluorobenzyl)piperazine-1-carbonyl)-1H-pyrazol-4-yl)-N-methylacetamide] | – | ≥ 75 | – | ≥ 75
6 | CC(=O)N(C)c1cnn(C(=O)N2CCC3(CCN(Cc4ccc(Cl)c(Cl)c4)C3)C2)c1 (stereo not shown) [Example 1, N-(1-(7-(3,4-dichlorobenzyl)-2,7-diazaspiro[4.4]nonane-2-carbonyl)-1H-pyrazol-4-yl)-N-methylacetamide] | ≤ 0.1 | ≥ 75 | 0.1 to 1 | ≥ 75
7 | CC(=O)N(C)c1cnn(C(=O)N2CCC3(CC2)CN(Cc2ccccc2F)C3)c1 [Example 41, N-(1-(2-(2-fluorobenzyl)-2,7-diazaspiro[3.5]nonane-7-carbonyl)-1H-pyrazol-4-yl)-N-methylacetamide] | – | 50 to 75 | – | ≥ 75
8 | CC(=O)N(C)c1cnn(C(=O)N2CCC3(CC2)CN(Cc2ccccc2N2CCOCC2)C3)c1 [Example 46, N-methyl-N-(1-(2-(2-morpholinobenzyl)-2,7-diazaspiro[3.5]nonane-7-carbonyl)-1H-pyrazol-4-yl)acetamide] | – | 0 to 25 | – | 50 to 75
9 | CC(=O)N(C)c1cnn(C(=O)N2C[C@H]3C[C@H](N(C)Cc4ccc(N5CCCC5)cc4C(F)(F)F)C[C@H]3C2)c1 [Example 158, N-methyl-N-(1-(trans-5-(methyl(4-(pyrrolidin-1-yl)-2-(trifluoromethyl)benzyl)amino)octahydrocyclopenta[c]pyrrole-2-carbonyl)-1H-pyrazol-4-yl)acetamide] | – | ≥ 75 | – | ≥ 75
10 | CN(Cc1ccc(N2CCCC2)cc1C(F)(F)F)[C@H]1C[C@@H]2CN(C(=O)n3cc(NS(C)(=O)=O)cn3)C[C@@H]2C1 [Example 282, N-(1-(trans-5-(methyl(4-(pyrrolidin-1-yl)-2-(trifluoromethyl)benzyl)amino)octahydrocyclopenta[c]pyrrole-2-carbonyl)-1H-pyrazol-4-yl) methanesulfonamide] | – | ≥ 75 | – | 50 to 75
11 | CS(=O)(=O)Nc1cnn(C(=O)N2CCN(Cc3cc(Cl)cc(C(F)(F)F)c3)CC2)c1 [Example 294, N-(1-(4-(3-chloro-5-(trifluoromethyl)benzyl)piperazine-1-carbonyl)-1H-pyrazol-4-yl)methanesulfonamide] | – | ≥ 75 | – | ≥ 75
12 | CC(=O)N(C)c1cnn(C(=O)N2CCC3(CC2)CN(Cc2ccc(Cl)c(Cl)c2)C3)c1 [Example 24, N-(1-(2-(3,4-dichlorobenzyl)-2,7-diazaspiro[3.5]nonane-7-carbonyl)-1H-pyrazol-4-yl)-N-methylacetamide] | ≤ 0.1 | ≥ 75 | ≤ 0.1 | ≥ 75
13 | CC(=O)N(C)c1cnn(C(=O)N2CC3(CCN(Cc4ccc(Cl)cc4)CC3)C2)c1 [Example 84, N-(1-(7-(4-chlorobenzyl)-2,7-diazaspiro[3.5]nonane-2-carbonyl)-1H-pyrazol-4-yl)-N-methylacetamide] | – | ≥ 75 | – | 50 to 75
14 | CC(=O)N(C)c1cnn(C(=O)N2C[C@H]3C[C@H](N(C)Cc4cc(N5CCCC5)cc(C(F)(F)F)c4)C[C@H]3C2)c1 [Example 160, N-methyl-N-(1-(trans-5-(methyl(3-(pyrrolidin-1-yl)-5-(trifluoromethyl)benzyl)amino)octahydrocyclopenta[c]pyrrole-2-carbonyl)-1H-pyrazol-4-yl)acetamide] | – | ≥ 75 | – | ≥ 75

Other lines, results leading:

Row | IC50 (FAAH) [µM] | inhibition at 1 µM (FAAH) [%] | IC50 (MAGL) [µM] | inhibition at 1 µM (MAGL) [%] | SMILES
15 | ≤ 0.1 | ≥ 75 | ≤ 0.1 | ≥ 75 | CC(=O)N(C)c1cnn(C(=O)N2CC3CN(Cc4cccc(Oc5ccccc5)c4)CC3C2)c1 (stereo not shown) [Example 234, N-methyl-N-(1-(5-(3-phenoxybenzyl)octahydropyrrolo[3,4-c]pyrrole-2-carbonyl)-1H-pyrazol-4-yl)acetamide]
16 | – | ≥ 75 | – | ≥ 75 | CC(=O)N(C)c1cnn(C(=O)N2CC3CN(Cc4ccc(OC5CCN(C6CC6)CC5)cc4Cl)CC3C2)c1 (stereo not shown) [Example 270, N-(1-(5-(2-chloro-4-((1-cyclopropylpiperidin-4-yl)oxy)benzyl)octahydropyrrolo[3,4-c]pyrrole-2-carbonyl)-1H-pyrazol-4-yl)-N-methylacetamide]
17 | ≤ 0.1 | ≥ 75 | ≤ 0.1 | ≥ 75 | CC(=O)N(C)c1cnn(C(=O)N2CC3CN(Cc4ccc(C(F)(F)F)cc4)CC3C2)c1 (stereo not shown) [Example 14, N-methyl-N-(1-(5-(4-(trifluoromethyl)benzyl)octahydropyrrolo[3,4-c]pyrrole-2-carbonyl)-1H-pyrazol-4-yl)acetamide]
18 | ≤ 0.1 | ≥ 75 | ≤ 0.1 | ≥ 75 | CC(=O)N(C)c1cnn(C(=O)N2CCC3(CCN(Cc4ccc(Cl)cc4Cl)C3)C2)c1 (stereo not shown) [Example 51, N-(1-(7-(2,4-dichlorobenzyl)-2,7-diazaspiro[4.4]nonane-2-carbonyl)-1H-pyrazol-4-yl)-N-methylacetamide]
19 | – | ≥ 75 | – | ≥ 75 | CC(=O)N(C)c1cnn(C(=O)N2CC3CN(Cc4cc(C(F)(F)F)ccc4N4CCCC4)CC3C2)c1 (stereo not shown) [Example 128, N-methyl-N-(1-(5-(2-(pyrrolidin-1-yl)-5-(trifluoromethyl)benzyl)octahydropyrrolo[3,4-c]pyrrole-2-carbonyl)-1H-pyrazol-4-yl)acetamide]
20 | ≤ 0.1 | ≥ 75 | ≤ 0.1 | ≥ 75 | CC(=O)N(C)c1cnn(C(=O)N2CC3CN(Cc4cccc(Oc5ccccc5Cl)c4)CC3C2)c1 (stereo not shown) [Example 240, N-(1-(5-(3-(2-chlorophenoxy)benzyl)octahydropyrrolo [3,4-c]pyrrole-2-carbonyl)-1H-pyrazol-4-yl)-N-methylacetamide]
21 | ≤ 0.1 | ≥ 75 | ≤ 0.1 | ≥ 75 | CC(=O)N(C)c1cnn(C(=O)N2CC3CN(Cc4cc(Cl)cc(N5CCCC5)c4)CC3C2)c1 (stereo not shown) [Example 110, N-(1-(5-(3-chloro-5-(pyrrolidin-1-yl)benzyl)octahydropyrrolo[3,4-c]pyrrole-2-carbonyl)-1H-pyrazol-4-yl)-N-methylacetamide]
22 | – | ≥ 75 | – | ≥ 75 | CC(=O)N(C)c1cnn(C(=O)N2CC3CN(Cc4ccc(N5CCCC5)c(C(F)(F)F)c4)CC3C2)c1 (stereo not shown) [Example 97, N-methyl-N-(1-(5-(4-(pyrrolidin-1-yl)-3-(trifluoromethyl)benzyl)octahydropyrrolo[3,4-c]pyrrole-2-carbonyl)-1H-pyrazol-4-yl)acetamide]
23 | ≤ 0.1 | ≥ 75 | 0.1 to 1 | ≥ 75 | CC(=O)N(C)c1cnn(C(=O)N2CC3CN(Cc4cccc(C)c4)CC3C2)c1 (stereo not shown) [Example 92, N-methyl-N-(1-(5-(3-methylbenzyl)octahydropyrrolo[3,4-c]pyrrole-2-carbonyl)-1H-pyrazol-4-yl)acetamide]
24 | – | ≥ 75 | – | ≥ 75 | CC(=O)N(C)c1cnn(C(=O)N2CCC3(CCN(Cc4ccc(-c5cncnc5)cc4Cl)C3)C2)c1 (stereo not shown) [Example 262, N-(1-(7-(2-chloro-4-(pyrimidin-5-yl)benzyl)-2,7-diazaspiro[4.4]nonane-2-carbonyl)-1H-pyrazol-4-yl)-N-methylacetamide]
25 | – | ≥ 75 | – | ≥ 75 | CC(=O)N(C)c1cnn(C(=O)N2CC3CN(Cc4ccc(-c5cccnn5)cc4Cl)CC3C2)c1 (stereo not shown) [Example 260, N-(1-(5-(2-chloro-4-(pyridazin-3-yl)benzyl)octahydropyrrolo[3,4-c]pyrrole-2-carbonyl)-1H-pyrazol-4-yl)-N-methylacetamide]
